# According to patent US7101888B2, “Oral liquid tolterodine composition” (Pharmacia & UpJohn Company, priority 2002, dated 2006):
# Experiments:
# [1] = Chemical stability of tolterodine in aqueous media; format: physicochemical
# [2] = test system: muscarinic receptors of the salivary gland; conditions: compared with oxybutynin; cited from earlier work
smiles,measurement,setting,value
"Cc1ccc(O)c([C@H](CCN(C(C)C)C(C)C)c2ccccc2)c1 [tolterodine, (R)-N,N-diisopropyl-3-(2-hydroxy-5-methylphenyl)-3-phenylpropanamine]",stability in aqueous solutions of tolterodine salts,[1]; alkaline pH,unstable
same,pH of optimum stability,[1]; aqueous solutions of tolterodine salts,about 4
same,chemical stability in aqueous media,[1]; neutral to alkaline pH levels,chemical instability
same,affinity for the muscarinic receptors of the salivary gland relative to oxybutynin,[2],about eight times lower
